In article PMC5729930, “Bitopic fluorescent antagonists of the A2A adenosine receptor based on pyrazolo[4,3-e][1,2,4]triazolo[1,5-c]pyrimidin-5-amine functionalized congeners” (MedChemComm, 2017):

What was measured:
A3AR = molecular target: T1, A3AR (Homo sapiens, UniProt P0DMS8); test: Competition radioligand binding, hA3AR ([125I]I-AB-MECA); details: [125I]I-AB-MECA 0.2 nM; for inhibition at 10 µM: percent inhibition at 10 μM, read-out: % inhib, A3
T1 construct: expressed in transfected cells
T1 sequence (P0DMS8 1-318): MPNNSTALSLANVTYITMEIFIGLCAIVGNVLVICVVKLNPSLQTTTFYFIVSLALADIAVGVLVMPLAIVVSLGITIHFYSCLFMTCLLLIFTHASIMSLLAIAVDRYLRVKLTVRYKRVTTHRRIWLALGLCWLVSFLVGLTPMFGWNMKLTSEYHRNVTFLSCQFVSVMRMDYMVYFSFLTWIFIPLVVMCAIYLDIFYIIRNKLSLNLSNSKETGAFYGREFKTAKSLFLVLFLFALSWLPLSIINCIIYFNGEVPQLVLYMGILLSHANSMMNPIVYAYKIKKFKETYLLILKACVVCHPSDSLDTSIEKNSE
Protocol: The affinity of the amine congeners and other antagonists was measured using standard radioligand binding assays for hA1, A2A and A3ARs (Table 1).[1],[13],[14],[22] Membranes of human embryonic kidney (HEK)293 cells expressing the AR of interest were used in the assay. Primary amine congeners 6a–6d containing spacers of 2–5 methylenes were similar in terms of hA2AAR affinity (Ki 6–9 nM), with the butylamino congener 6c displaying the highest A2AAR selectivity in the series. The affinity of this compound for the hA3AR was determined to be 6.0 μM, with only slightly higher hA1AR affinity. Homologation to 6 methylenes in compound 6e lowered A2AAR affinity. […] No dependence of the affinity on the chain length was evident when comparing AlexaFluor647 conjugates 9 and 10. […]
Radioligand binding assays: Cell membranes were prepared as reported.1
Binding assays were carried out using standard radioligands and membrane preparations from HEK-293 cells stably expressing the human (h) A1, A2A or A3ARs or mouse (m) A1, A2A or A3ARs. The radioligands used were: A1AR, [3H]8-cyclopentyl-1,3-dipropylxanthine 14; A2AAR, [3H]2; A3AR, [125I]N6-(4-amino-3-iodobenzyl)adenosine-5′-N-methyluronamide 16. The radioligand for archival A2AAR affinity data presented in Table 1 was [3H]2-[p-(2-carboxyethyl)phenyl-ethylamino]-5′-N-ethylcarboxamidoadenosine 15. Nonspecific binding was determined using 10 µM 8-[4-[[[[(2-aminoethyl)amino]carbonyl]methyl]oxy]phenyl]-1,3-dipropylxanthine 17 (A1AR and A2AAR) or 10 µM adenosine-5′-N-ethyluronamide 18 (A3AR). HEK-293 cells expressing recombinant mA1, A2A, or A3AR […]
Protein was determined as reported.2 In all the binding experiments, IC50 values and Ki values were calculated using GraphPad Prism software (San Diego, CA). Values are expressed as mean±SEM. […]
Med. Chem. Comm., 2015, 6:555-563.
2. Bradford, M. M. A rapid and sensitive method for the quantitation of microgram quantities of protein utilizing the principle of protein -dye binding. Anal. Biochem. 1976, 72, 248-254.

hA2AAR = molecular target: T2, hA2AAR (Homo sapiens, UniProt P29274); test: Flow cytometry saturation binding of fluorescent antagonists in whole cells; format: cell-based; details: hA2AAR-expressing HEK-293 cells; for nonspecific binding: result in words
T2 construct: expressed in transfected cells
Protocol: Compounds 11 and 12 were tested as fluorescent tracers for flow cytometry of HEK-293 cells expressing the hA2AAR (Fig. 4A). […] Thus, 11 tended to bind non-specifically to hydrophobic membranes by undetermined mechanisms. […]. For inhibition studies, the cells were co-incubated for one hour prior to flow cytometry with fluorescent probe 12 (10 nM) and a test antagonist. […]
Fig. 4 Saturation of fluorescent antagonists 11 (A) and 12 (B) in hA2AAR-expressing HEK-293 cells measured using flow cytometry following a 1 h incubation at 37 °C. Non-specific binding was determined with 10 μM 3. Results are expressed as the mean ± SEM. The Kd value calculated from Fig. 4B is listed in the text.
Cell culture for membrane binding assays and flow cytometry: HEK-293 cells stably expressing the A2AAR were grown in Dulbecco’s Modified Eagle’s Medium (DMEM) with 10% FBS, 100 units/ml penicillin, […] streptomycin, 2 mM L-glutamine and 0.500 mg/mL G418 Sulfate (Geneticin). Cells were maintained in a humidified atmosphere and sterile incubation conditions held at 37 °C and 5% CO2 (g). A day prior to the experiment, cells were plated on a 96 -well clear and flat bottom plate at 80 -90% confluency in 100 µL of medium. […]
Fluorescent binding studies: All binding studies were done in triplicate. For saturation binding studies, cells were treated with 50 µL of 11 (MRS 7396) or 12 (MRS 7416), to achieve a final concentration from 0.19 to 400 nM, and 50 µL of Tris-HCl buffer containing 10 mM MgCl2. Non-specific binding was determined with SCH442416 3 (final concentration of 10 µM, in Tris-HCl buffer). For displacement experiments, cells were incubated simultaneously with 50 µL of 40 nM 11 or 12 (final concentration 10 nM) and 50 µL of the non-labeled displacing ligand at increasing concentrations. The total binding was measured in the absence of a displacing ligand, and non-specific binding was determined with 10 µM 3.
After 1 h at 37 °C (for both the saturation and displacement experiments), the medium was removed and the cells were carefully washed two times with 150 µL of ice-cold PBS (not containing Mg+2 or Ca+2).
The cells were treated with 40 µL of Corning Cellstripper (Mediatech, Manassas, VA) per well and then incubated at 37 °C for 10 min. To each well was subsequently added 160 µL of PBS (not containing Mg+2 or Ca+2), and the cell fluorescence was analyzed with a BD FACSCalibur flow cytometer (Becton, Dickinson and Co., Franklin Lakes, NJ) with excitation at 635 nm (red diode laser, for 11) or 488 nm (blue laser, for 12) in conjunction with the software from BD Bioscience PlateManager and CellQuest. […]
2. Bradford, M. M. A rapid and sensitive method for the quantitation of microgram quantities of protein utilizing the principle of protein -dye binding. […]

T2 sequence (P29274 whole entry): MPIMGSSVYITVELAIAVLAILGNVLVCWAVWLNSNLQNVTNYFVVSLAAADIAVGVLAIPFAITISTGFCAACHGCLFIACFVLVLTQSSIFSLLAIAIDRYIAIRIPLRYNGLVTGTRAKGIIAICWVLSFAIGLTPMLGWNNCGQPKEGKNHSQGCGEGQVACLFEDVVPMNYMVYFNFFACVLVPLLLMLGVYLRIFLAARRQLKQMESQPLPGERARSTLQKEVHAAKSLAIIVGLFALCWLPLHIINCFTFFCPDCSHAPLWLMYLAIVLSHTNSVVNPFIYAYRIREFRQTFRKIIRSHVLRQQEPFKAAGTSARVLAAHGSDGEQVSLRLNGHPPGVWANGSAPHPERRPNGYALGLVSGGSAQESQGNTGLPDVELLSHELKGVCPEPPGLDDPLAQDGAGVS

| SMILES | Ki (A3AR; HEK-293 membranes, 1 h 25 °C, mean ± SEM, read-out: Affinity, Ki, A3) [nM] | inhibition at 10 µM (A3AR) [%] | specific binding, % of the total (hA2AAR; 1 h 37 °C, nonspecific with 10 μM 3) [%] | nonspecific binding (hA2AAR) | Kd (hA2AAR; 1 h 37 °C) [nM] |
| --- | --- | --- | --- | --- | --- |
| N.Nc1nc2c(cnn2CCCc2ccc(OCc3ccc(S(=O)(=O)O)cc3)cc2)c2nc(-c3ccco3)nn12 [compound 13] | 2660 ± 1250 |  |  |  |  |
| Nc1nc2c(cnn2CCCc2ccc(OCC(=O)NCCCCNC(=O)CCCCCNC(=O)COc3ccc(/C=C/C4=[N+]5C(=Cc6ccc(-c7cccs7)n6[B-]5(F)F)C=C4)cc3)cc2)c2nc(-c3ccco3)nn12 [compound 11] |  | 33 | < 25 | high nonspecific binding |  |
| CCN(CC)CC.CCN(CC)CC.N=c1ccc2c(-c3ccc(C(=O)NCCCCNC(=O)COc4ccc(CCCn5ncc6c5nc(N)n5nc(-c7ccco7)nc65)cc4)cc3C(=O)O)c3ccc(N)c(S(=O)(=O)O)c3oc-2c1S(=O)(=O)O [compound 12] |  | 32 |  | low nonspecific binding | 45.4 |
